In patent US20240108732A1, “Formulated and/or Co-Formulated Lipid Nanocarriers Compositions Containing Toll-Like Receptor ("TLR") Agonist Prodrugs Useful In The Treatment of Cancer and Methods Thereof” (Nammi Therapeutics, Inc., priority 2022, published 2024):

Tests used:
human TLR8 = molecular target: T1, human TLR8 (Homo sapiens, UniProt Q9NR97); experiment: Example 15: HEK-Blue hTLR8 cells / QUANTI-Blue SEAP assay; format: cell-based; conditions: from RAW-Blue and HEK-Blue hTLR8 results
T1 construct: host or cells: HEK-Blue hTLR8 cells
T1 sequence (Q9NR97 27-1041): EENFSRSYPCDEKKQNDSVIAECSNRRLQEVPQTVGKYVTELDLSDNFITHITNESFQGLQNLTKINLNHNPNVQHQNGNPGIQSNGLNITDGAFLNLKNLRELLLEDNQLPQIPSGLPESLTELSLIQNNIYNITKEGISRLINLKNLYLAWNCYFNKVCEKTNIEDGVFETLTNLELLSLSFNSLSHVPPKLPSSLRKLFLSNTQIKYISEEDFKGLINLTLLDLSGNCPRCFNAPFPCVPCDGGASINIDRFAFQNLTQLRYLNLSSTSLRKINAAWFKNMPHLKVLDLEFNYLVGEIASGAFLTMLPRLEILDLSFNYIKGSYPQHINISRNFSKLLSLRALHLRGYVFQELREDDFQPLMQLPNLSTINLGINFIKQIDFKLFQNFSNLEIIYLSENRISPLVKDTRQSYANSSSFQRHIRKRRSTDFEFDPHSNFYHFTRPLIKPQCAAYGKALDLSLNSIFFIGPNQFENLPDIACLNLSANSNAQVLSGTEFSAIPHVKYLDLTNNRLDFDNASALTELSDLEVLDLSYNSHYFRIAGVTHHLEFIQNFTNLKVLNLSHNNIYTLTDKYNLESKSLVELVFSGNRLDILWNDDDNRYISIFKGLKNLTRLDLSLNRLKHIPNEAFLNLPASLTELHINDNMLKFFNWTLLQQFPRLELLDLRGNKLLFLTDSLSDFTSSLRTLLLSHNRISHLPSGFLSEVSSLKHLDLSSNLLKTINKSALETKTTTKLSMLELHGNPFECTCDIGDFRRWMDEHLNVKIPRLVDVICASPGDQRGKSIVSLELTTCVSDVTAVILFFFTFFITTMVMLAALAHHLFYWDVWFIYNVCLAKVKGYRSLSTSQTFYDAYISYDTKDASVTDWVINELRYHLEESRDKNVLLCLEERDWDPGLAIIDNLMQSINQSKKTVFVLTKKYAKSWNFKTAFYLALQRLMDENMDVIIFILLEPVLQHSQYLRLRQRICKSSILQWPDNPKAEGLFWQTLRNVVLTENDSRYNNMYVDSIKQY
From the text: In another experiment, in vitro biological activity of SLNP-TR12 specificity to TLR7 was confirmed using the following experiment. […] It is noted that despite Raw-Blue cells that express a variety of TLRs including TLR7 and TLR8, the HEK-Blue™ hTLR8 cells dominantly express the human TLR8 gene and an NF-κB/AP-1-inducible SEAP (secreted embryonic alkaline phosphatase) reporter gene. Thus, SEAP levels produced upon TLR8 stimulation can be readily determined by performing the assay in HEK-Blue™ Detection.
Concurrently, HEK-Blue TLR8 were incubated with SLNP-TR5 or SLNP-TR12 at different concentrations. After 24 h incubation with the compounds, TLR stimulation was assessed by measuring the levels of SEAP optimal density (OD) using QUANTI-Blue™ assay. ODs were normalized to the control (untreated) group (See, FIG. 23(B)).

TLR7 = molecular target: T2, TLR7 (Mus musculus, UniProt P58681); experiment: Example 13: RAW-Blue cells / QUANTI-Blue SEAP reporter assay; format: cell-based; conditions: 24 h incubation
T2 construct: Raw-Blue cells that express a variety of TLRs including TLR7 and TLR8; host or cells: RAW-Blue cells
T2 sequence (P58681 27-1050): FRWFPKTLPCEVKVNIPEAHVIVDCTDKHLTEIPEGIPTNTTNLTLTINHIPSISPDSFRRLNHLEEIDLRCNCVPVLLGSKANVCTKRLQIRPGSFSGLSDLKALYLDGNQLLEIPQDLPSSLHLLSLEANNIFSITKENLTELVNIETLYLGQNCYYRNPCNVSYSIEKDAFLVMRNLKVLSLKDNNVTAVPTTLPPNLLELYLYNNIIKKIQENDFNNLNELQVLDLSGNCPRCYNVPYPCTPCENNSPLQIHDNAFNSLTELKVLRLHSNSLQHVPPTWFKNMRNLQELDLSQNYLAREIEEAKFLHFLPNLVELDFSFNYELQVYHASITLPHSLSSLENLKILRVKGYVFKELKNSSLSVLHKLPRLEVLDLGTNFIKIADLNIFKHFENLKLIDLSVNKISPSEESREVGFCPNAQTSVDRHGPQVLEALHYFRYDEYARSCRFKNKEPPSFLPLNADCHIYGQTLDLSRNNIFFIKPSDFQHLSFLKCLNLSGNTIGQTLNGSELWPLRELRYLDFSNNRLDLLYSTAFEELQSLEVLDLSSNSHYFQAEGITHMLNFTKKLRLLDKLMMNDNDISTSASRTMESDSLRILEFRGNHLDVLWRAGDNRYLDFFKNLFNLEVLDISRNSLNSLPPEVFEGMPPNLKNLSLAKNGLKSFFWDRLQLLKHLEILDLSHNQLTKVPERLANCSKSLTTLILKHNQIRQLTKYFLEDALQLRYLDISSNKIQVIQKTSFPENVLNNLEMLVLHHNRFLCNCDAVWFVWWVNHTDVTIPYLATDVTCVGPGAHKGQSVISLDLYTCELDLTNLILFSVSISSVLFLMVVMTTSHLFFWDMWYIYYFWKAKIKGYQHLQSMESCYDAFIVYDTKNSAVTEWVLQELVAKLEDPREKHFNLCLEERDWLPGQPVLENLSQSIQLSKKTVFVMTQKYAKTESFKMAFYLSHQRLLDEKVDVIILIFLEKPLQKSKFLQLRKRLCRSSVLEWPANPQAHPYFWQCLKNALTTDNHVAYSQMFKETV
Procedure: By way of background, RAW-Blue™ Cells and QUANTI-Blue™ (InvivoGen, San Diego, CA) assay were utilized. Raw Blue™ express […] Toll-like receptors (“TLRs”) and an NF-κB/AP-1-inducible SEAP (secreted embryonic alkaline phosphatase) reporter gene. Stimulation of these cells with TR12 leads to NF-κB activation through TLR7 which can be measured by detection of SEAP levels. Briefly, RAW-Blue™ Cells were incubated with TR12-SA (TR12-Stearic Acid) and SLNP-TR12 (TR12 Stearic Acid in Solid Lipid Nanoparticle from) at different concentration. After 24 h incubation with the compounds, TLR stimulation was assessed by measuring the levels of SEAP optimal density (OD) using QUANTI-Blue™ assay. ODs were normalized to the control (untreated) group. […] (See, FIG. 21).

| SMILES | specificity TLR7 versus TLR8 (human TLR8) | TLR stimulation (SEAP OD normalized to untreated control) (TLR7) |
| --- | --- | --- |
| CCCCCCCCCCCCCCCCCC(=O)NCCCCOn1c(CCCC)nc2c(N)nc3ccccc3c21 [TR5, Telratolimod] | stimulates both TLR7 and TLR8 | – |
| CCCCCCCCCCCCCCCCCC(=O)OCOC(=O)N1CCN(c2ccc(Cn3c(=O)[nH]c4c(N)nc(NCCCC)nc43)cn2)CC1 [TR12 prodrug] | – | stimulation of TLR-7 |
